Reference: publication PMC8588536, “Iridal-Type Triterpenoids Displaying Human Neutrophil Elastase Inhibition and Anti-Inflammatory Effects from Belamcanda chinensis” (Molecules, 2021)

Experiments:
[1] = system: NF-κB p65 in LPS-stimulated RAW264.7 cells; test: NF-κB nuclear translocation, immunocytochemistry; assay type: cell-based, mouse; details: pre-treatment 2 h prior to LPS 1 µg/mL for 16 h
Protocol: RAW264.7 cells cultured on round cover slips coated with poly-L-lysine were treated with triterpenoids (1 or 3 µg/mL) 2 h prior to LPS treatment, followed by LPS (1 µg/mL) for 16 h. The cells were washed with 1 x phosphate buffered saline (PBS) and fixed with 4% paraformaldehyde for 30 min. After washing the fixed cells with PBS, the cells were permeabilized with a blocking buffer (1% normal goat serum and 0.2% Triton X-100 in PBS) for 30 min at room temperature, and were incubated with an anti-NF-κB p65 antibody (1:200 dilution, Cell Signaling Technology, Danvers, MA, USA) at 4 °C overnight. After three washes in PBS, the cells were incubated in the dark for 1 h with the mixture of FITC-conjugated anti-rabbit IgG fluorescent secondary antibody diluted at 1:500 in PBS. Finally, the cells were stained with 2 µg/mL Hoechst for nuclei staining. The cells were washed with PBS, wet-mounted on glass slides, and observed using a confocal laser-scanning microscope (Olympus, Tokyo, Japan). The negative control (NC) was analyzed by omitting the primary antibody.

[2] = biological target: T1, Human neutrophil elastase (HNE) (Homo sapiens, UniProt P08246); test: Fluorescence quenching binding affinity to HNE; details: inhibitor 7.8–31.2 µM
T1 construct: purchased Sigma-Aldrich
T1 sequence (P08246 30-267): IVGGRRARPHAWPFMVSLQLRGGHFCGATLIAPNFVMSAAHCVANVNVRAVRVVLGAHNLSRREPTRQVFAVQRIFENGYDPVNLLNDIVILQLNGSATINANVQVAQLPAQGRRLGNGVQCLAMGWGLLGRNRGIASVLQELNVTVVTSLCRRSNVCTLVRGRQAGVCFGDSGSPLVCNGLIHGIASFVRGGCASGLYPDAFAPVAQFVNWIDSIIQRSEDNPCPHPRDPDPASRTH
Protocol: To measure fluorescence from the HNE enzyme, 10 μL of 0.01 unit/mL enzyme solution with 180 μL of Tris-HCl buffer (0.02 mM) was accurately added into the 96-well black immunoplates. Then, 10 μL of incremental concentrations (7.8–31.2 μΜ) of inhibitors were added into each well. All fluorescence spectra were measured from 280 to 400 nm with emission slits regulated to 2.0 nm, and the excitation wavelength was 260 nm. The Stern–Volmer quenching constant (KSV) was calculated using Equation (5). All experiments were conducted in triplicate, and the mean values were calculated. (5) […]=1+KSV[Q], where F0 and F are the fluorescence intensities in the absence and presence of quencher (Q). KSV is the Stern–Volmer quenching constant [LM^−1]. For static quenching, the correlation between the fluorescence intensity and the concentration of quencher for the series of reactions can be estimated by Equation (6). (6) log[(F0−F)/F]=logKA+nlog[Q]f.
F0 and F are the fluorescence intensities in the absence and presence of inhibitor; KA is the binding constant; n is the number of binding sites of the enzyme; Qf is the concentration of inhibitor.

[3] = biological target: T2, Human neutrophil elastase (HNE, EC 3.4.21.37) (Homo sapiens, UniProt P08246); test: Human neutrophil elastase inhibition, spectrophotometric, MeOSuc-AAPV-pNA substrate; assay type: biochemical
T2 construct: purchased Sigma-Aldrich
T2 sequence (P08246 30-267): T1 sequence (P08246 30-267)
Protocol: Human neutrophil elastase (EC 3. 4. 21. 37) (Sigma-Aldrich, St. Louis, MO, USA) activity was measured in accordance with the previous description with subtle modification, by observing the formation of p-nitroaniline after the hydrolysis of N-methoxysuccinyl-Ala-Ala-Pro-Val-p-nitro anilide at 405 nm. The inhibitors were dissolved in dimethyl sulfoxide (DMSO) and diluted to a few concentrations. In brief, in a 96-well plate, 10 µL of inhibitor solution and 40 µL of 1.5 mM of MeOSuc-AAPV-pNA were added as a substrate in the 0.02 mM Tris-HCl buffer solutions (pH 8.0). Then, 20 µL of human neutrophil elastase (0.2 unit/mL) was added to the mixture. The test mixtures were incubated and mixed for 15 min at room temperature and then screened at 405 nm for 30 min every 30 s.
Activity (%) = 100 [1/(1 + ([I]/IC50))].(1)
The modalities of HNE inhibition were estimated in experiments using particular concentrations of the substrates and inhibitors, respectively. The Michaelis–Menten constant (Km) and maximal velocity (Vmax) were investigated by a Lineweaver–Burk plot. The KI, dissociation constants for inhibitor binding to the free enzyme were calculated using a Dixon plot. Equations (2)–(4) are representatives for deriving the aforementioned parameters. (2) 1/V=Km/Vmax(1+[I]/Ki)×1/S+1/Vmax (3) Slop=Km/KiVmax[I]+Km/Vmax (4) Intercept=1/KiVmax[I]+1/Vmax.

| Structure (SMILES) | NF-κB translocation to the nucleus (immunocytochemical staining) [1] | n (number of binding sites of the enzyme) [2] | Kd ([2]; read-out: KA (association constant of the complex of enzyme and quencher) (converted)) [µM] | KSV (Stern-Volmer quenching constant) ([2]; λEx 260 nm, λEm 280–400 nm) [L/mol] | Ki ([3]; Dixon plots, read-out: Ki (inhibition constant)) [µM] | Type of Inhibition ([3]; Lineweaver-Burk and Dixon plots, reversibility from activity vs enzyme concentration plots) | fold better HNE inhibition than monocyclic compounds (1 and 2) ([3]; compared with compounds 1 and 2) | IC50 ([3]; concentration that caused 50% enzyme activity loss, three sets of experiments) [µM] |
| --- | --- | --- | --- | --- | --- | --- | --- | --- |
| CC(C)(C)c1ccc(S(=O)(=O)/C=C/C#N)cc1 [Bay 11-7085, reference compound] | suppressed |  |  |  |  |  |  |  |
| COC1OC(C=C(C)C=CC=C(C)CCC=C(C)C)CC12C(CCCO)C(=C(C)C=O)CCC2(C)O (centres unmarked) [Compound 3, iridobelamal B] |  | 0.9727 | 13.5 | 67640 | 6.2 | noncompetitive inhibitor | 2–3 fold | 6.8 ± 0.3 |
